Measurements as given in ChEMBL document CHEMBL3885881, “DrugMatrix”.

Organism: Rattus norvegicus
Test: DrugMatrix - Regimen: Daily Repeat
Type: toxicity, organism-based, Sprague-Dawley
Set-up: regimen Daily Repeat, gender Male, age 6-8 weeks
Details: in vivo, po, route oral GAVAGE, vehicle 100 % WATER; for ABSOLUTE BASOPHIL / ABSOLUTE EOSINOPHIL / ABSOLUTE LYMPHOCYTE / ABSOLUTE MONOCYTE / ABSOLUTE SEGMENTED NEUTROPHIL / BASOPHIL / EOSINOPHIL / ERYTHROCYTE COUNT / HEMATOCRIT / HEMOGLOBIN / LEUKOCYTE COUNT / LYMPHOCYTE / MEAN CORPUSCULAR HEMOGLOBIN / MEAN CORPUSCULAR HEMOGLOBIN CONCENTRATION / MEAN CORPUSCULAR VOLUME / MONOCYTE / NEUTROPHIL / NUCLEATED RED BLOOD CELLS / PLATELET COUNT: tissue Blood; for ALANINE AMINOTRANSFERASE / ALBUMIN / ALKALINE PHOSPHATASE / ASPARTATE AMINOTRANSFERASE / BLOOD UREA NITROGEN / CARBON DIOXIDE / CHLORIDE / CHOLESTEROL / CREATINE PHOSPHOKINASE / CREATININE / GLUCOSE / LACTATE DEHYDROGENASE / LIPASE / PHOSPHORUS / POTASSIUM / SODIUM / TOTAL BILIRUBIN / TOTAL PROTEIN / URIC ACID: tissue Plasma
[1] = 0 mg/kg, 72 h, dose level Control, time 3 day
[2] = 0 mg/kg, 120 h, dose level Control, time 5 day
[3] = 30 mg/kg, 72 h, dose level Low, time 3 day

SMILES: CC1COc2c(N3CCN(C)CC3)c(F)cc3c(=O)c(C(=O)O)cn1c23 (centres undefined) [OFLOXACIN]
- ABSOLUTE BASOPHIL [1]: 0 CELLS/uL
- ABSOLUTE EOSINOPHIL [1]: 0 CELLS/uL
- ABSOLUTE LYMPHOCYTE [1]: 10386.33 CELLS/uL
- ABSOLUTE MONOCYTE [1]: 88.5 CELLS/uL
- ABSOLUTE SEGMENTED NEUTROPHIL [1]: 1008.5 CELLS/uL
- BASOPHIL [1]: 0%
- EOSINOPHIL [1]: 0%
- ERYTHROCYTE COUNT [1]: 5.16 x10E6/uL
- HEMATOCRIT [1]: 32.43%
- HEMOGLOBIN [1]: 12.98 G/DL
- LEUKOCYTE COUNT [1]: 11.48 x10E3/uL
- LYMPHOCYTE [1]: 92.33%
- MEAN CORPUSCULAR HEMOGLOBIN [1]: 25.23 pg
- MEAN CORPUSCULAR HEMOGLOBIN CONCENTRATION [1]: 40.08 G/DL
- MEAN CORPUSCULAR VOLUME [1]: 62.95 fL
- MONOCYTE [1]: 0.67%
- NEUTROPHIL [1]: 7%
- NUCLEATED RED BLOOD CELLS [1]: 0 /100WBC
- PLATELET COUNT [1]: 1016.67 x10E3/uL
- ALANINE AMINOTRANSFERASE [1]: 62.17 u/L
- ALBUMIN [1]: 3.95 G/DL
- ALKALINE PHOSPHATASE [1]: 363.5 u/L
- ASPARTATE AMINOTRANSFERASE [1]: 118 u/L
- BLOOD UREA NITROGEN [1]: 14.5 mg/dL
- CARBON DIOXIDE [1]: 22.83 mmol/L
- CHLORIDE [1]: 100.67 MEQ/L
- CHOLESTEROL [1]: 66 mg/dL
- CREATINE PHOSPHOKINASE [1]: 1308.83 u/L
- CREATININE [1]: 0.22 mg/dL
- GLUCOSE [1]: 187.5 mg/dL
- LACTATE DEHYDROGENASE [1]: 380.17 u/L
- LIPASE [1]: 16.17 u/L
- PHOSPHORUS [1]: 14.27 mg/dL
- POTASSIUM [1]: 6.8 MEQ/L
- SODIUM [1]: 142.53 MEQ/L
- TOTAL BILIRUBIN [1]: 0.2 mg/dL
- TOTAL PROTEIN [1]: 5.68 G/DL
- URIC ACID [1]: 2.87 mg/dL
- ABSOLUTE BASOPHIL [2]: 0 CELLS/uL
- ABSOLUTE EOSINOPHIL [2]: 80 CELLS/uL
- ABSOLUTE LYMPHOCYTE [2]: 13301.33 CELLS/uL
- ABSOLUTE MONOCYTE [2]: 180.83 CELLS/uL
- ABSOLUTE SEGMENTED NEUTROPHIL [2]: 1187.83 CELLS/uL
- BASOPHIL [2]: 0%
- EOSINOPHIL [2]: 0.5%
- ERYTHROCYTE COUNT [2]: 5.54 x10E6/uL
- HEMATOCRIT [2]: 35.65%
- HEMOGLOBIN [2]: 14.22 G/DL
- LEUKOCYTE COUNT [2]: 14.75 x10E3/uL
- LYMPHOCYTE [2]: 90.67%
- MEAN CORPUSCULAR HEMOGLOBIN [2]: 25.65 pg
- MEAN CORPUSCULAR HEMOGLOBIN CONCENTRATION [2]: 39.88 G/DL
- MEAN CORPUSCULAR VOLUME [2]: 64.35 fL
- MONOCYTE [2]: 1%
- NEUTROPHIL [2]: 7.83%
- NUCLEATED RED BLOOD CELLS [2]: 0.17 /100WBC
- PLATELET COUNT [2]: 1285.33 x10E3/uL
- ALANINE AMINOTRANSFERASE [2]: 51.67 u/L
- ALBUMIN [2]: 4.08 G/DL
- ALKALINE PHOSPHATASE [2]: 391.5 u/L
- ASPARTATE AMINOTRANSFERASE [2]: 99.5 u/L
- BLOOD UREA NITROGEN [2]: 15.5 mg/dL
- CARBON DIOXIDE [2]: 28.33 mmol/L
- CHLORIDE [2]: 101.83 MEQ/L
- CHOLESTEROL [2]: 67.83 mg/dL
- CREATINE PHOSPHOKINASE [2]: 771.33 u/L
- CREATININE [2]: 0.23 mg/dL
- GLUCOSE [2]: 156.5 mg/dL
- LACTATE DEHYDROGENASE [2]: 544.33 u/L
- LIPASE [2]: 10.17 u/L
- PHOSPHORUS [2]: 12.03 mg/dL
- POTASSIUM [2]: 6.81 MEQ/L
- SODIUM [2]: 144.13 MEQ/L
- TOTAL BILIRUBIN [2]: 0.22 mg/dL
- TOTAL PROTEIN [2]: 6 G/DL
- URIC ACID [2]: 2.18 mg/dL
- ABSOLUTE BASOPHIL [3]: 0 CELLS/uL
- ABSOLUTE EOSINOPHIL [3]: 95.33 CELLS/uL
- ABSOLUTE LYMPHOCYTE [3]: 12358.67 CELLS/uL
- ABSOLUTE MONOCYTE [3]: 136.33 CELLS/uL
- ABSOLUTE SEGMENTED NEUTROPHIL [3]: 1043 CELLS/uL
- BASOPHIL [3]: 0%
- EOSINOPHIL [3]: 0.67%
- ERYTHROCYTE COUNT [3]: 5.52 x10E6/uL
- HEMATOCRIT [3]: 36.03%
- HEMOGLOBIN [3]: 13.97 G/DL
- LEUKOCYTE COUNT [3]: 13.63 x10E3/uL
- LYMPHOCYTE [3]: 90.67%
- MEAN CORPUSCULAR HEMOGLOBIN [3]: 25.4 pg
- MEAN CORPUSCULAR HEMOGLOBIN CONCENTRATION [3]: 38.77 G/DL
- MEAN CORPUSCULAR VOLUME [3]: 65.33 fL
- MONOCYTE [3]: 1%
- NEUTROPHIL [3]: 7.67%
- NUCLEATED RED BLOOD CELLS [3]: 0 /100WBC
- PLATELET COUNT [3]: 1082 x10E3/uL
- ALANINE AMINOTRANSFERASE [3]: 46.67 u/L
- ALBUMIN [3]: 4.03 G/DL
- ALKALINE PHOSPHATASE [3]: 420.67 u/L
- ASPARTATE AMINOTRANSFERASE [3]: 75 u/L
- BLOOD UREA NITROGEN [3]: 13.33 mg/dL
- CARBON DIOXIDE [3]: 28 mmol/L
- CHLORIDE [3]: 100.33 MEQ/L
- CHOLESTEROL [3]: 76.33 mg/dL
- CREATINE PHOSPHOKINASE [3]: 165.33 u/L
- CREATININE [3]: 0.19 mg/dL
- GLUCOSE [3]: 159 mg/dL
- LACTATE DEHYDROGENASE [3]: 114 u/L
- LIPASE [3]: 10.67 u/L
- PHOSPHORUS [3]: 13.07 mg/dL
- POTASSIUM [3]: 6.69 MEQ/L
- SODIUM [3]: 143.73 MEQ/L
- TOTAL BILIRUBIN [3]: 0.2 mg/dL
- TOTAL PROTEIN [3]: 5.87 G/DL
- URIC ACID [3]: 1.23 mg/dL
